PubChem BioAssay (NCI)
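1) Cells in 96-well plates. 2) Compound, 48 h, 5 concentrations. 3) Linear interpolation between surrounding doses. 4) Unreached endpoint = highest concentration. The concentration for full growth arrest is given as TGI.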

Columns and labels:
Assay in all cases: growth of human tumour cells (NCI), 48 h
786-0 renal = tested on: 786-0 renal
A498 renal = tested on: A498 renal
A549 NSCLC = tested on: A549 NSCLC
ACHN renal = tested on: ACHN renal
BT-549 breast = tested on: BT-549 breast
CAKI-1 renal = tested on: CAKI-1 renal
COLO 205 colon = tested on: COLO 205 colon
DU-145 prostate = tested on: DU-145 prostate
EKVX NSCLC = tested on: EKVX NSCLC
HCC-2998 colon = tested on: HCC-2998 colon
HCT-15 colon = tested on: HCT-15 colon
HOP-62 NSCLC = tested on: HOP-62 NSCLC
HOP-92 NSCLC = tested on: HOP-92 NSCLC
HT29 colon = tested on: HT29 colon
K-562 leukemia = tested on: K-562 leukemia
M14 melanoma = tested on: M14 melanoma
MALME-3M melanoma = tested on: MALME-3M melanoma
MCF7 breast = tested on: MCF7 breast
MDA-MB-231 breast = tested on: MDA-MB-231 breast
MDA-MB-435 = tested on: MDA-MB-435
MDA-N = tested on: MDA-N
MOLT-4 leukemia = tested on: MOLT-4 leukemia
NCI-H226 lung = tested on: NCI-H226 lung
NCI-H23 lung = tested on: NCI-H23 lung
NCI-H460 lung = tested on: NCI-H460 lung
NCI-H522 lung = tested on: NCI-H522 lung
NCI/ADR-RES ovarian = tested on: NCI/ADR-RES ovarian
OVCAR-3 ovarian = tested on: OVCAR-3 ovarian
OVCAR-4 ovarian = tested on: OVCAR-4 ovarian
OVCAR-5 ovarian = tested on: OVCAR-5 ovarian
OVCAR-8 ovarian = tested on: OVCAR-8 ovarian
PC-3 prostate = tested on: PC-3 prostate
RPMI-8226 leukemia = tested on: RPMI-8226 leukemia
RXF 393 renal = tested on: RXF 393 renal
SF-268 CNS = tested on: SF-268 CNS
SF-295 CNS = tested on: SF-295 CNS
SK-MEL-2 melanoma = tested on: SK-MEL-2 melanoma
SK-MEL-28 melanoma = tested on: SK-MEL-28 melanoma
SK-MEL-5 melanoma = tested on: SK-MEL-5 melanoma
SK-OV-3 ovarian = tested on: SK-OV-3 ovarian
SN12C renal = tested on: SN12C renal
SNB-19 CNS = tested on: SNB-19 CNS
SR leukemia = tested on: SR leukemia
SW-620 colon = tested on: SW-620 colon
TK-10 renal = tested on: TK-10 renal
U251 CNS = tested on: U251 CNS
UACC-257 melanoma = tested on: UACC-257 melanoma
UACC-62 melanoma = tested on: UACC-62 melanoma
UO-31 renal = tested on: UO-31 renal

SMILES: COc1cc2c[n+](C)c3c4cc(OC)c(OC)cc4c(OCc4ccccc4)cc3c2cc1OC
- TGI (786-0 renal): 12.3 µM
- TGI (A498 renal): > 86.7 µM
- TGI (A549 NSCLC): > 100 µM
- TGI (ACHN renal): > 100 µM
- TGI (BT-549 breast): 1.71 µM
- TGI (CAKI-1 renal): > 90.7 µM
- TGI (COLO 205 colon): 1.96 µM
- TGI (DU-145 prostate): 9.81 µM
- TGI (EKVX NSCLC): > 100 µM
- TGI (HCC-2998 colon): 41.3 µM
- TGI (HCT-15 colon): > 100 µM
- TGI (HOP-62 NSCLC): 10.5 µM
- TGI (HOP-92 NSCLC): 3.24 µM
- TGI (HT29 colon): 7.29 µM
- TGI (K-562 leukemia): > 100 µM
- TGI (M14 melanoma): 4.2 µM
- TGI (MALME-3M melanoma): 3.31 µM
- TGI (MCF7 breast): 5.05 µM
- TGI (MDA-MB-231 breast): 6.69 µM
- TGI (MDA-MB-435): 2.34 µM
- TGI (MDA-N): 2.53 µM
- TGI (MOLT-4 leukemia): > 80.1 µM
- TGI (NCI-H226 lung): 3.94 µM
- TGI (NCI-H23 lung): 4.36 µM
- TGI (NCI-H460 lung): > 100 µM
- TGI (NCI-H522 lung): 1.5 µM
- TGI (NCI/ADR-RES ovarian): > 100 µM
- TGI (OVCAR-3 ovarian): 3.97 µM
- TGI (OVCAR-4 ovarian): > 27.5 µM
- TGI (OVCAR-5 ovarian): > 100 µM
- TGI (OVCAR-8 ovarian): 5.02 µM
- TGI (PC-3 prostate): 3.41 µM
- TGI (RPMI-8226 leukemia): 77.2 µM
- TGI (RXF 393 renal): 6.19 µM
- TGI (SF-268 CNS): 1.97 µM
- TGI (SF-295 CNS): 96.9 µM
- TGI (SK-MEL-2 melanoma): 3.37 µM
- TGI (SK-MEL-28 melanoma): 2.55 µM
- TGI (SK-MEL-5 melanoma): 2.69 µM
- TGI (SK-OV-3 ovarian): > 100 µM
- TGI (SN12C renal): > 100 µM
- TGI (SNB-19 CNS): 1.92 µM
- TGI (SR leukemia): > 100 µM
- TGI (SW-620 colon): > 100 µM
- TGI (TK-10 renal): > 100 µM
- TGI (U251 CNS): 1.08 µM
- TGI (UACC-257 melanoma): 3.38 µM
- TGI (UACC-62 melanoma): 1.8 µM
- TGI (UO-31 renal): > 100 µM
